Assay results: a melting point compilation (Tetko et al.; mined from patent text by program, amines drawn as free bases though some values may be those of a salt)

Structure (SMILES) | melting point
CCOC(=O)c1cnc2c(I)cc(COC(C)=O)cc2c1O | 119 to 123 °C
O=[N+]([O-])c1cccc(/C=C/c2nc(C3CCCCCC3)cs2)c1 | 60 °C
O=C(c1ccccc1C(c1ccc(O)cc1)c1ccc(O)cc1)N1CCN(c2ccccc2Cl)CC1 | > 300 °C
O=C(Cc1ccccc1)Nc1ccccc1SCc1ccc(Cl)cc1 | 100 to 101 °C
COC(=O)c1ccc(-c2ccc3cc(OS(=O)(=O)C(F)(F)F)c(C45CC6CC(CC(C6)C4)C5)cc3c2)cc1 | 226 to 227 °C
Cc1cc(-c2noc(C(F)(F)F)n2)cc(C)c1OCCCc1cncs1 | 95 to 97 °C
CCC(C)NC(=O)c1nc2cnn(CC)c2nc1-c1ccccc1 (stereo unspecified) | 150 to 151 °C
CC(=O)N(N=Cc1c(Cl)cccc1Cl)c1nncn1N(C(C)=O)C(C)=O | 140 to 150 °C
CCOC=NN=C(c1ccc(Cl)cc1)c1ccc(OS(C)(=O)=O)cc1 | 104 to 107 °C
O=C(O)Cc1cccc2c(-c3ccc(Br)cc3)onc12 | 190 to 192 °C
CC(C)(C)c1cc(OCCCCC#N)cc(C(C)(C)C)c1 | 61 to 64 °C
Cc1[nH]cnc1CN1CCc2c(c3cccc(F)c3n2C)C1 | 188 to 190 °C
CCC1c2cccn2-c2ccc(F)cc2N1S(=O)(=O)c1ccc(OC)c(Cl)c1 (stereo unspecified) | 152 to 154 °C
CCCCCCCCCCCCCCCC(=O)Nc1ccc(C(=O)O)cc1C | 194 to 196 °C
CC1(C)Oc2ccc(C#N)cc2[C@@H](NC(=O)c2ccccn2)[C@@H]1O (relative stereo) | 165 °C
O=c1c2cc(Br)ccc2[nH]n1-c1ccccc1F | 200 to 205 °C
CC(C)c1nn(-c2ccc(C(F)(F)F)cn2)cc1COc1cc(C=O)n(C)n1 | 112 to 113 °C
CCCCOc1ncc(C(C)=O)cc1-c1nn2c(CC)nc(CCC)c2c(=O)[nH]1 | 155 to 156 °C
O=C1Nc2ccccc2CCCC1N1C(=O)c2ccccc2C1=O (stereo unspecified) | 229 to 230 °C
O=c1cc(-c2ccc(OCc3ccccc3)c(OCc3ccccc3)c2)oc2ccc(OCC3CO3)cc12 (stereo unspecified) | 147 to 149 °C
CC(=O)NC[C@H]1CN(c2ccc(N3CCC(n4cc(C#N)nn4)CC3)c(F)c2)C(=O)O1 | 148 to 150 °C
CC(C)N(Cc1nc(-c2ncn3c2CN(C)C(=O)c2c(Cl)cccc2-3)no1)C(C)C | 58 to 63 °C
COC(=O)c1ccc2[nH]c3ccccc3c2c1 | 180 to 181 °C
CC(=O)N1CCc2nc(C)nc(-c3ccc(Cl)cc3)c2C1 | 139 to 141 °C

Structure (SMILES) | melting point
CCCC(C)(O)C(=O)Nc1cc(Br)[nH]c(=O)c1 (stereo unspecified) | 188 °C
Cc1cc(-c2ccc(C(F)(F)F)cc2)nc(-n2cnc(-c3cccc(S(N)(=O)=O)c3)c2)n1 | 186 °C
O=C(N1CC(CCl)c2c1ccc1ccc(S(=O)(=O)N(Cc3ccccc3)Cc3ccccc3)cc21)C(F)(F)F (stereo unspecified) | 119 to 121 °C
O=C(Cc1ccccc1Cl)Nc1ccc(C(=O)N2CCCCc3sccc32)cc1 | 178 to 180 °C
N#Cc1c(N)cccc1N1CCCC1 | 112 to 114 °C
CCCCc1nc(Cl)c(C=O)n1Cc1ccc([N+](=O)[O-])cc1 | 88 to 89 °C
O=C(O)Cc1cc(C(=O)c2ccc(Cl)cc2)ccc1O | 250 °C
N#Cc1ccc2[nH]cc(C3CCC(=O)CC3)c2c1 | 162 to 164 °C
CCOc1cc(C)cc(C)c1C | 93 to 95 °C
Cc1cn(C(C)(C)C(N)=O)nc1-c1ccccc1 | 105 to 106 °C
CC(C)NC(=O)Nc1ccc(Cl)cc1C(=O)c1ccccc1 | 190 to 192 °C
O=C(O)CCCCc1ccc(NS(=O)(=O)c2ccccc2)cn1 | 136 to 138 °C
COc1nc(Nc2cc(C)ccc2N)nc(OC)n1 | 180 to 183 °C
CCCOc1nc(=O)n(C(=O)NC)s1 | 112 °C
CCc1c(-c2ccc(OCc3ccccc3)cc2)c2cc(C(C)=O)c3ccc(OCc4ccccc4)c1n32 | 147 to 149 °C
NC(=O)C(Oc1ccc(Cl)cc1)(C(F)(F)F)C(F)(F)F | 77 to 79 °C
CC(C)N(Cc1ccc(COc2cccc3c2CN(C2CCC(=O)NC2=O)C3=O)cc1)C(C)C (stereo unspecified) | 201 to 203 °C
COCCOc1cc(NS(=O)(=O)c2ccccn2)c2[nH]c(C(=O)O)cc2c1 | 230 to 232 °C
O=C(c1[nH]ncc1-c1csc(Nc2ncccn2)n1)C1CC1 | 244 °C
C=C(Cl)CNC(=S)SCc1ccccc1 | 46 to 48 °C
CCOC(=O)C(=O)CC(=O)C=Cc1ccc([N+](=O)[O-])cc1 | 148 to 154 °C
CCOP(C)(=O)COS(=O)(=O)c1ccccc1C(F)(F)F (stereo unspecified) | 91 to 92.5 °C
O=C(c1cccc(OC(F)(F)F)c1)N1CCc2cc(S(=O)(=O)N3CC(c4ccccc4)NC3=O)ccc21 (stereo unspecified) | 129 to 131 °C
COc1nc(C)cc(C(=O)NS(=O)(=O)c2ccccc2[N+](=O)[O-])n1 | 212 to 216 °C

Structure (SMILES) | melting point
COc1ccc(C=Cc2nnc(C(Br)(Br)Br)o2)cc1 | 160 to 161 °C
CCCCCCCCc1ccc(N(c2ccc(CCCCCCCC)cc2)C2(c3ccc(N(CC)CC)cc3C)OC(=O)c3nccnc32)cc1 (stereo unspecified) | 180 to 187 °C
O=C1N(Cc2ncon2)c2ccccc2C12COc1cc3c(cc12)OCO3 (stereo unspecified) | 160 to 162 °C
O=C1CCC(c2ccccc2)(c2ccccc2)C2CN(C(Cc3ccccc3)=NCc3ccc(Cl)cc3)CC12 (stereo unspecified) | 198 °C
c1ccc2cc(NC3=NCC4(CN5CCC4CC5)O3)ncc2c1 (stereo unspecified) | 196 to 200 °C
Oc1ccc(-c2cn(-c3ccncc3)c(-c3ccc(F)cc3)n2)cc1 | 230 to 231 °C
C=Cc1ccc(CSCCC(=O)O)cc1 | 77 to 78 °C
Cc1ccc(C2c3c(C)c(N4CCN(c5cccnc5)CC4)c(C)c(C)c3OC2(C)C)cc1 (stereo unspecified) | 136 to 137 °C
NS(=O)(=O)c1ccc(CNC(=O)c2cccnc2Oc2cccc(-n3cnnn3)c2)cc1 | 72 to 74 °C
CSc1nc(SC)c(NC(=O)CCCCCSc2nc3ccccc3o2)c(SC)n1 | 149 to 153 °C
C=CCCC(F)c1cc(C2(c3ccc(OC(F)F)cc3)N=C(N)N(C)C2=O)ccc1F (stereo unspecified) | 50 to 55 °C
COC(=O)N1CC(Cc2ccc(OC)c(OC3CCCC3)c2)N(C(=O)OC)C1=O (stereo unspecified) | 138 to 140 °C
COc1ccc2ccc(CC3=NOS(=O)N3)cc2c1 (stereo unspecified) | 146 to 147 °C
COCCOc1ccc(-c2cncc(C#N)c2Nc2ccc3[nH]ccc3c2C)cc1OC | 208 to 210 °C
O=C(O)CCC1CCN(CC(=O)OC2CCCCC2)CC1 | 85 to 88 °C
O=C1CNc2ncc(I)cc2N1Cc1ccc(C(F)(F)F)o1 | 189 to 191 °C
CC(=O)OC1CCC2(C)C(CCC3C2CCC2(C)C3CCC2C(C)(O)C#N)C1 (stereo unspecified) | 168 to 178 °C
COC(=O)Nc1cn2cccc(Sc3ccccc3)c2n1 | 169 to 171 °C
Cc1oncc1C(=O)N1CCCC1 | 51 to 53 °C
CCCC(C)CC(C)(C)NC(=O)CN1C(=O)c2ccccc2C1=O (stereo unspecified) | 132 °C
COc1ccc(N(C(=O)C(C)c2ccccc2)c2cccc(Nc3c(N)c(=O)c3=O)c2)cc1 (stereo unspecified) | 168 to 170 °C
CC=NN(C)C1=NOCc2ccc(Cl)cc21 | 111 to 112 °C
NNN=CNCCC(=O)O | 177 to 179 °C
